In a melting point compilation (Tetko et al.):

| SMILES | melting point [°C] |
| --- | --- |
| COc1cc(F)c(C=O)cc1F | 99 |
| CCCCCCCCCCCCCCCCCCCCCC1CCCC1 | 42 |
| FC(F)C(F)(F)Cl | -117 |
| CN1CCN(Cc2ccc(CO)cc2)CC1 | 96 to 98 |
| Cc1cc(Br)cc([N+](=O)[O-])c1 | 83 |
| CC(Br)C(=O)c1ccc(Br)cc1 (centres undefined) | 85 to 88 |
| O=Cc1cc(Cl)cc(C=O)c1O | 119 to 125 |
| Clc1ccccc1-c1ccccc1 | 34 |
| O=C(Cl)C1=Cc2cc(Cl)ccc2OC1 | 92 to 94 |
| CC(=O)CCn1cc([N+](=O)[O-])nc1C | 98 to 100 |
| CSc1n[nH]c(N)c1C(N)=O | 176 |
| COc1cc(Cl)ccc1[N+](=O)[O-] | 71 |
| CCCOCOCCC | -97.3 |
| COC(=O)C1Cc2c3c(c4c(c2CC1C(=O)OC)CC(C(=O)OC)C(C(=O)OC)C4)CC(C(=O)OC)C(C(=O)OC)C3 (centres undefined) | 261 to 263 |
| CCSC(SCC)C(OC(C)=O)C(OC(C)=O)C(OC(C)=O)C(COC(C)=O)OC(C)=O (centres undefined) | 111 to 112 |
| COC1CCC(OC)O1 (centres undefined) | -45 |
| OCCSCCCCCCCCCCSCCO | 69.5 |
| OCC(CO)(CO)COCC(CO)(CO)COCC(CO)(CO)CO | 249 |
| Nc1cc(Cl)nc(Cl)c1 | 174 |
| N#Cc1cc([N+](=O)[O-])cc([N+](=O)[O-])c1 | 129 |
| C[Si](C)(C)Nc1ncnc2c1ncn2[Si](C)(C)C | 86 |
| Oc1cncc(F)c1 | 163 |
| Clc1cc(I)ccn1 | 43 |
| O=Cc1ccc(C(F)(F)F)nc1 | 53 to 55 |
| N#CSCc1c(Cl)cccc1Cl | 39 to 42 |
| CN(C)CCc1c[nH]c2ccc(O)cc12 | 146 |
| O=C(O)c1cc([N+](=O)[O-])ccc1N1CCOCC1 | 166 to 172 |

| SMILES | melting point [°C] |
| --- | --- |
| NC(=O)NN=CC[N+](=O)[O-] | 360 |
| O=C(O)C(F)(F)C(F)(F)C(F)(F)C(F)(F)C(F)(F)C(F)F | 34 |
| CS(=O)(=O)OCCC(=O)N1CCN(C(=O)CCOS(C)(=O)=O)CC1 | 175 |
| CC(=O)OC1CCC2C3CCC4CC(C(C)=O)CCC4(C)C3CCC12C (centres undefined) | 140 |
| CC(=O)C=NO | 69 |
| O=Cc1cccc(Br)c1 | 20 |
| Nc1cc(CO)ccn1 | 83 |
| CC(C)C1=C(O)C(=O)C2=C(C1=O)[C@@H]1O[C@@H]1[C@H]1C(C)(C)CCC[C@]21C | 202 |
| OC(CBr)C(O)CBr (racemic) | 82 to 84 |
| S=C=Nc1c(Cl)cccc1Cl | 43 |
| COc1ccc(NC(=O)C(C(F)(F)F)C(F)(F)F)cc1 | 185 to 187 |
| Cc1cc(CCl)c(C)cc1CCl | 132 |
| Cc1ccc(C=C[N+](=O)[O-])cc1 | 96 to 99 |
| Cc1nc(CO)c(C)o1 | 73 |
| O=C1CCCc2occc21 | 60.5 to 61.5 |
| CCCCNC(=O)CC#N | 54 to 55 |
| CCCCC#Cc1cncc(C(=O)NN)c1 | 158 to 161 |
| O=C=Nc1ccc(Cl)c([N+](=O)[O-])c1 | 66 |
| CC(C)(C)OC(=O)NC(=O)OC(C)(C)C | 114 to 117 |
| CCCCN(CCN(CCCC)C(=O)N1CCOCC1)C(=O)N1CCOCC1 | 41.5 |
| Nc1c(Cl)c(Cl)cc(Cl)c1Cl | 107 |
| COc1cc(N)ccc1[N+](=O)[O-] | 127 |
| C=Cc1ccc(CC)cc1 | -49.7 |
| Fc1cccc(Br)n1 | 32 |
| Cc1cncc([N+](=O)[O-])c1 | 96 |
| C1COCCOCCOCCOCCOCCN1 | 48 |

Continued, values first:

| melting point [°C] | SMILES |
| --- | --- |
| 208 to 211 | CCOC(=O)c1ccccc1C(=C1C=C(Br)C(=O)C(Br)=C1)c1cc(Br)c(O)c(Br)c1 |
| 157 | CN(C)c1ccn2c(=O)c3ccccc3cc2c1 |
| 180 | CC(C)(C)N(NC(=O)c1ccccc1)C(=O)c1cccc(Cl)c1 |
| 171 | S=C(NCC(c1ccccc1)c1ccccc1)Nc1ccccc1 |
| 231 | CC1=Nc2ccccc2Sc2c1c(=O)n(-c1ccccc1)c1ccccc21 |
| 24 to 25 | Cc1onc(-c2ccccc2)c1C(=O)Cl |
| 121 to 122 | CCSc1ncccc1C(=O)NC(CCSC)C(=O)O (centres undefined) |
| 179 | COc1ccc(C(=O)c2nn3c(nc(=O)c4ccccc43)s2)cc1 |
| 58 to 60 | Cc1ccc2sc(C(=O)Cl)cc2c1 |
| 90 | O=C(Oc1ccccn1)Oc1ccccn1 |
| 157 | Cc1cccc(N/N=C(/C#N)c2nc(-c3ccc(Cl)cc3)cs2)c1 |
| 282 | Nc1cc2c(cc1Cl)C(=O)c1ccccc1C2=O |
| 231 | CCCCNc1cc(C(=O)O)cc(S(N)(=O)=O)c1Oc1ccccc1 |
| 102 | CON(C)C(=O)Nc1ccc(Oc2ccc3c(c2)OC(C)(OC)CC3(C)C)cc1 (centres undefined) |
| 61 to 62 | Cc1ccc(S(=O)(=O)OCCc2coc3ccccc23)cc1 |
| 53 | CCOC(=O)CSc1nc(C(C)(C)C)nn1C(=O)N(C)C |
| 104 to 106 | O=C(CCl)Nc1ccc(Oc2ccccc2)cc1 |
| 104 to 106 | COC(=O)c1ccc(NC(C)C)c(N)c1 |
| 138 | Cc1ccc2c(-c3ccccc3)nc(=O)n(C(C)C)c2c1 |
| 36 | CC(=O)OC(C(=O)Cl)c1ccccc1 (centres undefined) |
| 205 | NC(Cc1ccc(O)c(I)c1)C(=O)O (centres undefined) |
| 60 | CC(=NO)c1ccccc1 |
| 169 | O=C(CC(C(=O)c1ccccc1)C(CC(=O)c1ccccc1)C(=O)c1ccccc1)c1ccccc1 (centres undefined) |
| 92 | Cc1cc2ccccc2cc1COC(=O)C(F)(F)F |

| melting point [°C] | SMILES |
| --- | --- |
| 134 | ON=Cc1cccc2c(Br)cccc12 |
| 195 | Cc1cc(NS(=O)(=O)c2ccc(N)cc2)n(-c2ccccc2)n1 |
| 58 to 60 | CCOC(=O)c1cc(C)nc(Cl)c1C#N |
| 169 | CCOC(=O)c1nn(-c2ccc(C)cc2)c(C)c1C(=O)c1noc(-c2ccccc2)c1S(=O)(=O)c1ccccc1 |
| 220 | O=C(O)c1cccnc1Sc1ccc(Cl)cc1 |
| 86 | c1ccc(OCc2ccc(CCN3CCOCC3)cc2)cc1 |
| 128 to 132 | Cc1ccc(C)c(CC(=O)O)c1 |
| 251 to 252 | C/C(=N\c1cc(C)ccc1O)c1c(O)c2ccccc2n(-c2ccccc2)c1=O |
| 156 | c1ccc2c(c1)Nc1ccccc1O2 |
| 71 to 72 | Cc1nc(-c2cccc(CBr)c2)no1 |
| 153 to 155 | CC(=O)NC(Cc1ccccc1F)C(=O)O (racemic) |
| 68 | CC(CN(C)C)CN1c2ccccc2Sc2ccccc21 (centres undefined) |
| 140 | Cc1ccc(Nc2ccc([N+](=O)[O-])cc2[N+](=O)[O-])cc1 |
| 150 | O=C(c1ccc(Cl)cc1)c1noc(-c2cccc3ccccc23)c1S(=O)(=O)c1ccccc1 |
| 85 to 87 | CCCC(=O)c1ccc(NC(C)=O)cc1O |
| 96 | O=Cc1cccc2ncccc12 |
| 62 to 63 | N#CC(c1ccccc1)N1CCCCC1 (centres undefined) |
| 110 | CCN(CC)C(=O)Nc1ccc(OCC(O)CNC(C)(C)C)c(C(C)=O)c1 (centres undefined) |
| 120 | O=C(NCc1ccccc1)c1cccnc1Cl |
| 206 | COc1ccc(C(=O)N(NC(=O)c2ccccc2)C(C)(C)C)cc1OC |
| 41 | CC12CCC(C(C(=O)Oc3ccccc3)C1)C2(C)C (centres undefined) |
| 271 | O=C1OC(c2ccccc2)=N/C1=C\c1ccc(/C=C2/N=C(c3ccccc3)OC2=O)cc1 |
| 51 to 52 | O=Cc1csc(-c2ccccc2)n1 |
| 131 | N=c1sc(C(=O)c2cccs2)nn1-c1ccncc1 |

| melting point [°C] | SMILES |
| --- | --- |
| 127 to 129 | CC(=O)Nc1ccc2c(c1)CCCC2=O |
| 95 | c1ccc(CNc2ccccn2)cc1 |
| 123 | Cc1cccc2c1ccc1ccccc12 |
| 51 to 53 | CNCc1ccc(-c2noc(C)n2)cc1 |
| 40 to 41 | O=C(Cl)c1cnn(-c2ccccc2)c1C(F)(F)F |
| -19 | CCN(CCO)c1cccc(C)c1 |
| 163 | O=C(C=Cc1ccc([N+](=O)[O-])cc1)c1ccc(Cl)cc1 |
| 222 to 223 | O=C(Nc1cccc2cc(OC(=O)c3ccccc3)ccc12)c1ccccc1 |
| 114 | CCOC(=O)CNC(c1ccccc1)(c1ccccc1)c1ccccc1 |
| 229 to 230 | Cc1ccc(C(=O)NC(=Cc2ccccc2)C(=O)O)cc1 |
| 102 to 106 | c1ccc(-c2ccccc2P(C2CCCCC2)C2CCCCC2)cc1 |
| 90 to 95 | Cc1nc2ccc(-c3ccccc3)cc2s1 |
| 235 | Cc1cc(C(F)(F)F)n2nc(N)c(/N=N/c3ccccc3[N+](=O)[O-])c2n1 |
| 150 to 152 | O=C(COc1ccc2ccccc2c1)ON1C(=O)CCC1=O |
| 212 to 215 | O=C(Nc1ccccc1)c1cccc(S(=O)(=O)Nc2ccccc2)c1 |
| 220 | Nc1ccc(Br)cc1C(=O)O |
| 192 | O=[N+]([O-])c1ccc(C=Cc2ccc([N+](=O)[O-])cc2S(=O)(=O)Oc2ccccc2)c(S(=O)(=O)Oc2ccccc2)c1 |
| 304 to 305 | Oc1n[nH]c2nc3ccccc3nc12 |
| 99 to 100 | CCCc1c(O)c(C(C)=O)cc(C(C)=O)c1O |
| 97 | CC(C)n1cc(-c2ccc(F)cc2)c2ccccc21 |
| 167 | CCOC(=O)c1cc2c(=O)oc3ccccc3c2nc1C |
| 111 | Oc1ccccc1N1CCCC1 |
| 255 to 257 | CCOC(=O)c1cn[nH]c1NC(=O)Nc1ccc(F)cc1 |
